Here are results for 14 molecules from ChEMBL document CHEMBL4304789, “Design, Synthesis, and Biological Evaluation of 2,4-Imidazolinedione Derivatives as HDAC6 Isoform-Selective Inhibitors” (ACS Med Chem Lett, 2019).

The structures appear in SMILES notation. Activity calls are given as the source filed them. No cut-off for these calls is given here. Bounds are passed on as bounds.

One assay addresses T1, Protein deacetylase HDAC6 (Homo sapiens, UniProt Q9UBN7).
T1 sequence (Q9UBN7 whole entry): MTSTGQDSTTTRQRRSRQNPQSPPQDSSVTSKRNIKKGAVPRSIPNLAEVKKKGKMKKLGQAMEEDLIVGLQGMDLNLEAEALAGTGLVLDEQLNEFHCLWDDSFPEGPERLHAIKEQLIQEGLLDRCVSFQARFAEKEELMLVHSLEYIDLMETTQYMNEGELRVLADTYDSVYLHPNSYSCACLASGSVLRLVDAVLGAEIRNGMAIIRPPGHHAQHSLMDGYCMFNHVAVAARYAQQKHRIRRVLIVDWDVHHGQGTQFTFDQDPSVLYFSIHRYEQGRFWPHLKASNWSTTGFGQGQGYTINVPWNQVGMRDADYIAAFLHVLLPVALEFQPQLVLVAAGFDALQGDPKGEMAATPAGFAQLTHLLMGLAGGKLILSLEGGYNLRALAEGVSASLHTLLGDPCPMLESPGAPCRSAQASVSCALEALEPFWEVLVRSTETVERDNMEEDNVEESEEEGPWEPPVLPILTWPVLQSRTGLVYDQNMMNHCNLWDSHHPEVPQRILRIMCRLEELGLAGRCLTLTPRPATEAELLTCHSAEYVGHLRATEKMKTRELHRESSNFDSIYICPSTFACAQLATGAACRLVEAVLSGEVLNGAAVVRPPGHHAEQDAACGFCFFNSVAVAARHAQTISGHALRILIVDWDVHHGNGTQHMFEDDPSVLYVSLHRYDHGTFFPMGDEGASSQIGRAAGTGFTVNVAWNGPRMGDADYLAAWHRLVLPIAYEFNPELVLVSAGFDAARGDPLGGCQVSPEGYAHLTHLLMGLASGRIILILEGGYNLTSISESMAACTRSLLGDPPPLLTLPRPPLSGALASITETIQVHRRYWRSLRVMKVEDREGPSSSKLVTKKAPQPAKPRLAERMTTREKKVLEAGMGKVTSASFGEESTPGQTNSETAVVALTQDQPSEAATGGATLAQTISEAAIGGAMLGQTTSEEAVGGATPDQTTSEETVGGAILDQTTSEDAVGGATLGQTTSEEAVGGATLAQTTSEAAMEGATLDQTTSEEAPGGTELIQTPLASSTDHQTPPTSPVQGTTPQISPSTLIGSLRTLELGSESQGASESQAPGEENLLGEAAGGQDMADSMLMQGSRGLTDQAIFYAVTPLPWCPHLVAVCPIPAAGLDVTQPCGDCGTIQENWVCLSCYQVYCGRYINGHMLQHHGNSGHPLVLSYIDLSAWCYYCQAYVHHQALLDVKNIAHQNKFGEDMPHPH
Briefly: Inhibition of HDAC6 (unknown origin) using Ac-LeuGlyLys(Ac)-AMC as substrate preincubated for 5 mins followed by substrate addition and measured after 60 mins by fluorescence based assay.
Conditions: not given
As a reminder, the IC50 is the concentration at which inhibition is half-maximal. In the case of `Cc1ccc(CN2C(=O)N(c3ccc(Cl)cc3)C(=O)C2CCC(=O)Nc2cccc(C(=O)NO)c2)cc1` (centres undefined), the IC50 was > 40 nM.
On the same count and under the same terms, the figure for `O=C(CCC1C(=O)N(c2ccc(Cl)cc2)C(=O)N1Cc1ccccc1)Nc1cccc(C(=O)NO)c1` (centres undefined) is > 40 nM.
Still for that read-out and setting: to `O=C(CCC1C(=O)N(Cc2ccccc2)C(=O)N1Cc1ccc(Br)cc1)Nc1ccc(C(=O)NO)cc1` (centres undefined) belongs 9.8 nM; to `Cc1ccc(CN2C(=O)N(C3CCCCC3)C(=O)C2CCC(=O)Nc2ccc(C(=O)NO)cc2)cc1` (centres undefined), 10.3 nM.
The same measure, in the same setting: the figure for `O=C(CCC1C(=O)N(c2ccccc2)C(=O)N1Cc1ccc(Br)cc1)NCc1ccc(C(=O)NO)cc1` (centres undefined) is 13.6 nM; for `Cc1ccc(CN2C(=O)N(C3CCCCC3)C(=O)C2CCC(=O)NCc2ccc(C(=O)NO)cc2)cc1` (centres undefined) it is 17 nM; for `CCCN1C(=O)N(c2ccc(Cl)cc2)C(=O)C1CCC(=O)Nc1ccc(C(=O)NO)cc1` (centres undefined) it is 12.6 nM.
On to `O=C(CCC1C(=O)N(c2ccc(Cl)cc2)C(=O)N1Cc1ccc(Br)cc1)NCc1ccc(C(=O)NO)cc1` (centres undefined), for which half-maximal inhibition (IC50) required 16.5 nM.
Still for that read-out and setting: the figure for `Cc1ccc(CN2C(=O)N(c3ccc(Cl)cc3)C(=O)C2CCC(=O)NCc2ccc(C(=O)NO)cc2)cc1` (centres undefined) is 18.9 nM.
On the same count and under the same terms, the figure for `CN1C(=O)N(c2ccc(Cl)cc2)C(=O)C1CCC(=O)Nc1ccc(C(=O)NO)cc1` (centres undefined) is 7 nM; for `CN1C(=O)N(c2ccc(Cl)cc2)C(=O)C1CCC(=O)NCc1ccc(C(=O)NO)cc1` (centres undefined) it is 11.8 nM.
Same read-out and setting: to `O=C(CCC1C(=O)N(c2ccc(Cl)cc2)C(=O)N1Cc1ccccc1)NCc1ccc(C(=O)NO)cc1` (centres undefined) belongs 12.7 nM; to `CCCN1C(=O)N(C2CCCCC2)C(=O)C1CCC(=O)Nc1ccc(C(=O)NO)cc1` (centres undefined), > 40 nM.

A further assay addresses Histone deacetylase (Homo sapiens) (UniProt Q13547+O15379+Q9UBN7+Q92769+Q9UQL6+Q8WUI4+Q9BY41+Q96DB2+P56524+Q9UKV0+Q969S8). As to conditions: at 0.08 to 1.6 µM.
Description: Inhibition of HDAC in human HL60 cells assessed as increase in acetylation of H3 at 0.08 to 1.6 uM incubated for 24 hrs by western blot analysis
Consider `O=C(CCCCCCNC(=O)c1cnc(N(c2ccccc2)c2ccccc2)nc1)NO`, for which the inhibition entry was “Active”.
